Test results: ChEMBL document CHEMBL4265943, “Design and synthesis of potent dual inhibitors of JAK2 and HDAC based on fusing the pharmacophores of XL019 and vorinostat” (Eur J Med Chem, 2018)

Legend:
MCF7 [1] = experiment: Antiproliferative activity against human MCF7 cells after 72 hrs by MTT assay; format: functional, cell-based; settings: MCF7, 72 h
[2] = biological target: Tyrosine-protein kinase JAK2 (Homo sapiens, UniProt O60674); experiment: Inhibition of human JAK2 using poly(Glu:Tyr)(4:1) as substrate preincubated for 20 mins followed by [gamma33P]ATP addition measured after 120 mins by ion exchange filter paper method
PC-3 [3] = experiment: Induction of apoptosis in human PC3 cells assessed as live cells at 0.71 uM after 72 hrs by Annexin V-FITC/propidium iodide staining based flow cytometry (reference value: 96.36%); format: functional
PC-3 [4] = experiment: Induction of apoptosis in human PC3 cells assessed as necrotic cells at 0.71 uM after 72 hrs by Annexin V-FITC/propidium iodide staining based flow cytometry (reference value: 0.66%); format: functional
[5] = Selectivity index, ratio of CC50 for mouse TAMH cells to IC50 for human PC3 cells; format: toxicity; settings: TAMH cells (CC50) and PC3 cells (IC50)
Homo sapiens = species on record: Homo sapiens; experiment: Selectivity ratio of IC50 for human JAK3 to IC50 for human JAK2
PC-3 [6] = experiment: Antiproliferative activity against human PC3 cells after 72 hrs by MTT assay; format: functional, cell-based; settings: PC-3, 72 h
[7] = Selectivity index, ratio of CC50 for human AC10 cells to IC50 for human PC3 cells; format: toxicity; settings: AC10 cells (CC50) and PC3 cells (IC50)
MCF7 [8] = experiment: Induction of apoptosis in human MCF7 cells assessed as early apoptotic cells at 0.86 uM after 72 hrs by Annexin V-FITC/propidium iodide staining based flow cytometry (reference value: 1.19%); format: functional
[9] = biological target: T1, Tyrosine-protein kinase JAK3 (Homo sapiens, UniProt P52333); experiment: Inhibition of human JAK3 using poly(Glu:Tyr)(4:1) as substrate preincubated for 20 mins followed by [gamma33P]ATP addition measured after 120 mins by ion exchange filter paper method
T1 sequence (P52333 whole entry): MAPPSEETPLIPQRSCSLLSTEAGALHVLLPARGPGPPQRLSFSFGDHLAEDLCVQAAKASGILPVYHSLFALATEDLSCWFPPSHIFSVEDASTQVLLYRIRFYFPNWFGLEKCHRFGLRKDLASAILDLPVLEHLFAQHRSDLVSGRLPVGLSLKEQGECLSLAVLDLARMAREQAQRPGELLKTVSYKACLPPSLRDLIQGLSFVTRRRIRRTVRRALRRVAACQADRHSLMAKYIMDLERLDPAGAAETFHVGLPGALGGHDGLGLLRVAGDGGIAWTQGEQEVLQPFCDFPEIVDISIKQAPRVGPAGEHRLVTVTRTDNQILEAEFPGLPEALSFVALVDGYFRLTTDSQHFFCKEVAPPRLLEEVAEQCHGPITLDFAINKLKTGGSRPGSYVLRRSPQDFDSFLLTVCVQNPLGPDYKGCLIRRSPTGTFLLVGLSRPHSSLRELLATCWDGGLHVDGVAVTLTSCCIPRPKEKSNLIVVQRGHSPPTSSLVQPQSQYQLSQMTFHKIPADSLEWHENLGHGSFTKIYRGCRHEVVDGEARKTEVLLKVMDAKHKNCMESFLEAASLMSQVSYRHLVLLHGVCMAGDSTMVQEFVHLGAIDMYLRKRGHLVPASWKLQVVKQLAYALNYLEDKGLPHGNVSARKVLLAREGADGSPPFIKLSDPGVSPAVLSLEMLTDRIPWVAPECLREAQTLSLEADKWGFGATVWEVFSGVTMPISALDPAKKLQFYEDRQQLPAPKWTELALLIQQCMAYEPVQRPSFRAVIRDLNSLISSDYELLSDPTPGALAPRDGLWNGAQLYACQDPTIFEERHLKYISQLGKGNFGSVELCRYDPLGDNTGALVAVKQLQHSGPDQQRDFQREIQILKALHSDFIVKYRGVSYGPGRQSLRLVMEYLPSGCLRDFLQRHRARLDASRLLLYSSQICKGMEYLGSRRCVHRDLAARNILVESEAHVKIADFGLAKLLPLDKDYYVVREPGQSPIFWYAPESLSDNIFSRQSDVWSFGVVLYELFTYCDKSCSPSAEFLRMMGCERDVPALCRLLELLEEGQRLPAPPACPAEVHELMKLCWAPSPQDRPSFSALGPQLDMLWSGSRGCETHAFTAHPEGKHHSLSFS

HCT-116 [10] = experiment: Induction of apoptosis in human HCT116 cells assessed as live cells at 1.14 uM after 72 hrs by Annexin V-FITC/propidium iodide staining based flow cytometry (reference value: 95.7%); format: functional
PC-3 [11] = experiment: Induction of apoptosis in human PC3 cells assessed as late apoptotic cells at 0.71 uM after 72 hrs by Annexin V-FITC/propidium iodide staining based flow cytometry (reference value: 1.01%); format: functional
HCT-116 [12] = experiment: Induction of apoptosis in human HCT116 cells assessed as early apoptotic cells at 1.14 uM after 72 hrs by Annexin V-FITC/propidium iodide staining based flow cytometry (reference value: 1.31%); format: functional
HCT-116 [13] = experiment: Antiproliferative activity against human HCT116 cells after 72 hrs by MTT assay; format: functional, cell-based; settings: HCT-116, 72 h
[14] = Selectivity index, ratio of CC50 for mouse TAMH cells to IC50 for human HCT116 cells; format: toxicity; settings: TAMH cells (CC50) and HCT116 cells (IC50)
[15] = Selectivity index, ratio of CC50 for mouse TAMH cells to IC50 for human MCF7 cells; format: toxicity; settings: TAMH cells (CC50) and MCF7 cells (IC50)
[16] = biological target: Tyrosine-protein kinase JAK1 (Homo sapiens, UniProt P23458); experiment: Inhibition of human JAK1 using poly(Glu:Tyr)(4:1) as substrate preincubated for 20 mins followed by [gamma33P]ATP addition measured after 120 mins by ion exchange filter paper method
Sequence of Tyrosine-protein kinase JAK1 (P23458 whole entry): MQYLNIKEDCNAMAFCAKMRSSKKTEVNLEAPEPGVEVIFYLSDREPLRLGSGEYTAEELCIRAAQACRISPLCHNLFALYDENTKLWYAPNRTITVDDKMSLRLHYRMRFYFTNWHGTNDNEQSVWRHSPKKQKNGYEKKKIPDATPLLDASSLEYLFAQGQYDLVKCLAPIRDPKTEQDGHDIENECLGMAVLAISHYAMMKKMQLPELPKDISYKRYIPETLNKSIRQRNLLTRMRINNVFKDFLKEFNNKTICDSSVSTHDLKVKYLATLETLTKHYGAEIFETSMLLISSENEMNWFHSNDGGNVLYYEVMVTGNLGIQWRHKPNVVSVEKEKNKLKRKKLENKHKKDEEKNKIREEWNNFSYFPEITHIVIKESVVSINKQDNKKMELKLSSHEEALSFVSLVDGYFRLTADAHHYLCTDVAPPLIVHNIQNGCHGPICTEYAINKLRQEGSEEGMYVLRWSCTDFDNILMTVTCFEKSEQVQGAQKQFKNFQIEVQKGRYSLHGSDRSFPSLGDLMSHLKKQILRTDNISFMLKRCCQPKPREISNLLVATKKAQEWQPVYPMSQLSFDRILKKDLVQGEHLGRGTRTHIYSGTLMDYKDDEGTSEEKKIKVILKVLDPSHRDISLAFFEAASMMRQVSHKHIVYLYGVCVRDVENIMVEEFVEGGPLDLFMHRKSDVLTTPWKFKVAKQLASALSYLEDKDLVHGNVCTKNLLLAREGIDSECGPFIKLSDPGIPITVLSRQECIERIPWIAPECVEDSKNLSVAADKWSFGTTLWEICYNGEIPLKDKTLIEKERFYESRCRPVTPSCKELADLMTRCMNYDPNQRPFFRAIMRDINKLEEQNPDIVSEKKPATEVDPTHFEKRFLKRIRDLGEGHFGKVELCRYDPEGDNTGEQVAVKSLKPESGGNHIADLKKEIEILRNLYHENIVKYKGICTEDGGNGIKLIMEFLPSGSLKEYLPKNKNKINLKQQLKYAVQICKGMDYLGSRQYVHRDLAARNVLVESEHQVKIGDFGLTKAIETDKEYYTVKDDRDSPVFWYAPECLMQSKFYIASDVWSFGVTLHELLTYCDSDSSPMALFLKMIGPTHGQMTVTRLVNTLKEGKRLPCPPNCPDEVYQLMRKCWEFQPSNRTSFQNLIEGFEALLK

Sequence of Tyrosine-protein kinase JAK2 (O60674 whole entry): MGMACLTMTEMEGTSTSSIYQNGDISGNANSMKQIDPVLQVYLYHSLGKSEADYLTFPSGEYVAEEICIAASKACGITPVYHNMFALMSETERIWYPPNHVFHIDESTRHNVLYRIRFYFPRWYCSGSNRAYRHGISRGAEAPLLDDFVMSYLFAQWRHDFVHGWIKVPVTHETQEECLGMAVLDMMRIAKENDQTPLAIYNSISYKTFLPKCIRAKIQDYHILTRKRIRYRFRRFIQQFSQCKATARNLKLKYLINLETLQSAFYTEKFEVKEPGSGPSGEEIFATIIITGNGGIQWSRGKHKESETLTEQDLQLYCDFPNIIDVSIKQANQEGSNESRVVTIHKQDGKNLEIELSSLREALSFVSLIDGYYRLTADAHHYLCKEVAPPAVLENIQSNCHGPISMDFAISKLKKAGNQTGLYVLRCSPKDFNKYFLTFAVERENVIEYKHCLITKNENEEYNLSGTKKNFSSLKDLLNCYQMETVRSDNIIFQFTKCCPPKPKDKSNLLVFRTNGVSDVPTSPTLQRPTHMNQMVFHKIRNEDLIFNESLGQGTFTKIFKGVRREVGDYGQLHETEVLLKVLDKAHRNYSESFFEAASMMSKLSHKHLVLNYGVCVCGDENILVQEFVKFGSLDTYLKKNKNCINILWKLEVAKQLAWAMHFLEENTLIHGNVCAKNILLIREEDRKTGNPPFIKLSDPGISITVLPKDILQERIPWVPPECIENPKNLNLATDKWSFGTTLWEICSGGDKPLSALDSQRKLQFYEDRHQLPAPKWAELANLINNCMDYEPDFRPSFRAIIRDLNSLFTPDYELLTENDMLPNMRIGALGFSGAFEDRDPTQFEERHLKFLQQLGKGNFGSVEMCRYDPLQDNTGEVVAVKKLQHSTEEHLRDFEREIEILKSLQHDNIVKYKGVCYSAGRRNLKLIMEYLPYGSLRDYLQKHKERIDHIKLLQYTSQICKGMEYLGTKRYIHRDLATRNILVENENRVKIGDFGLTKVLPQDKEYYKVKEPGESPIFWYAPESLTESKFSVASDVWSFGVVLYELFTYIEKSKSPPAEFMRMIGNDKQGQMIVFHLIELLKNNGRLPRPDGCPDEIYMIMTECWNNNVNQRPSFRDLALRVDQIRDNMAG

SMILES: O=C(CCCCCCC(=O)Nc1ccc(-c2ccnc(Nc3ccc(N4CCOCC4)cc3)n2)cc1)NO
- IC50 (MCF7 [1]): 700 nM
- IC50 [2]: 3.1 nM
- Activity (PC-3 [3]): 39.88%
- Activity (PC-3 [4]): 1.37%
- selectivity ratio [5]: 9.98
- Ratio IC50 (Homo sapiens): 25.8
- IC50 (PC-3 [6]): 640 nM
- selectivity ratio [7]: 6.22
- Activity (MCF7 [8]): 29.26%
- IC50 [9]: 80.1 nM
- Activity (HCT-116 [10]): 52.4%
- Activity (PC-3 [11]): 13.06%
- Activity (HCT-116 [12]): 31.19%
- IC50 (HCT-116 [13]): 1050 nM
- selectivity ratio [14]: 6.09
- selectivity ratio [15]: 9.13
- IC50 [16]: 52.1 nM
